The source of these data is patent US12383512B2, “Cannabidiol-type cannabinoid compound” (Jazz Pharmaceuticals Research UK LImited, priority 2019, dated 2025).

The subject of this assay is tonic hind limb extensor seizure following corneally delivered electroshock in mice. Briefly: Supramaximal electroshock seizure (MES) test in the mouse. The format is in vivo. Here is the method:
The MES test is a very stringent model in which mice receive a predetermined high-level electrical stimulus of sufficient intensity to reliably produce tonic hindlimb extensor seizures in 100% of control animals. As such the MES test is a rigorous evaluation of anticonvulsant activity (Swinyard, 1985).
Animals were dosed i.p. according to treatment group. […]
In addition, a dose of 100 mg/kg CBD was given at 10 ml/kg i.p. at 120 minutes pre-treatment time to assess the effect of the drug over a longer time course.
The positive control valproate was used at 250 mg/kg (10 ml/kg i.p. 30 min pre-treatment time).
Induction of seizure is measured as an all-or-nothing effect scored as either present (+) or absent (0) for each animal.
Data was collected by an observer unaware of the treatment for each animal and was expressed as the number of +'s or 0's for each treatment group.
The percentage inhibition of relevant vehicle treated group (the protection relative to vehicle treated controls) was then generated.
Significant differences between individual treatment groups and vehicle-treated groups were assessed using 2-tailed Fisher's Exact Probability test (p<0.05 considered significant).
(In general: In the maximal electroshock model the usual endpoint is tonic extension of the hind limbs.)

Regarding `C=C(C)[C@@H]1CC(O)C(C)=C[C@H]1c1c(O)cc(CCCCC)cc1O` (stereo partly drawn) [6-OH CBD, Alpha 6-hydroxy cannabidiol], the “% change from vehicle” value (3 mg/kg i.p., pre-treatment time 60 min) is given as 0%; the “% change from vehicle” value (30 mg/kg i.p., pre-treatment time 60 min) was 100%; the “% change from vehicle” value (100 mg/kg i.p., pre-treatment time 60 min) is 100%; the “% change from vehicle” value (100 mg/kg i.p., pre-treatment time 120 min) is 100%; the “% change from vehicle” value (200 mg/kg i.p., pre-treatment time 60 min) was determined as 100%. The “seizure outcome in words” value (3 mg/kg i.p., text says 120 minutes before the test) was “ineffective”; the “seizure outcome in words” value (30 mg/kg i.p., text says 120 minutes before the test) was “enabled all mice within the group to withstand seizures”; the “seizure outcome in words” value (100 mg/kg given 120 minutes before) is “statistically significant reduction of seizures”; the “seizure outcome in words” value (100 mg/kg i.p., text says 120 minutes before the test) is “enabled all mice within the group to withstand seizures”; the “seizure outcome in words” value (200 mg/kg i.p., text says 120 minutes before the test) was “enabled all mice within the group to withstand seizures”.
